{"source": "patent US5231082A", "about": "“Cyclic peptide with anti-metastasis activity” (Monsanto Company, priority 1989, dated 1993)", "key": {"HT-1080 cells": {"tested_on": "HT-1080 cells", "assay": "In vitro cell attachment assays", "assay_type": "cell-based, human", "protocol": "HT-1080 cells from a human fibrosarcoma (Rasheed, S. et al., Cancer (Philadelphia) 33:1027 (1974) are maintained in Dulbecco's modified Eagle's medium (DMEM) supplemented with 10% fetal calf serum. After the cells are grown to 80% confluency, they are washed with 0.02M phosphate buffer, pH 7.4, without CA^+2 and Mg^+2 and detached with a solution of 0.025% trypsin plus 0.025% ethylenediaminetetraacetic acid (EDTA; GIBCO). The cells are then pelleted by low speed centrifugation and resuspended in Eagle's minimal essential medium (EMEM) containing 0.02% bovine serum albumin (BSA, Sigma Chemical Co., St. Louis, Mo.). Cell attachment assays are performed as described in Klebe, R.J. Nature (London) 250:248 (1974), on tissue culture plastic substrates by using 16-mm Falcon tissue culture wells (Fisher Scientific Co., Pittsburg, Pa.) incubated with various peptides or with laminin in lmL of EMEM containing 0.02% BSA for 1 or 2 hours at 37° C. Cells (10^5 in 0.1 mL) are added to the wells, and the solution is incubated for an additional 1 hour at 37° C. in 95% air and 5% CO2. Subsequently, the wells are rinsed 3 times with lmL of phosphate-buffered saline (PBS) to remove unattached cells. Attached cells are trypsinized and counted electronically (Coulter, ZBI). […]"}, "67 kd laminin receptor": {"tested_on": "67 kd laminin receptor", "assay": "Laminin receptor binding / elution from laminin affinity columns"}, "B16F10 melanoma cells": {"tested_on": "B16F10 melanoma cells", "assay": "Lung tumor colonization assay", "assay_type": "in vivo, mice", "protocol": "B16F10 melanoma cells, obtained from I.J. Fidler, M.D., Anderson Hospital, Houston, TX, are propagated under standard culture conditions. The lung tumor colonization assay is carried out as described in Fidler, I.J., Nature (London) (New Biol.) 242:148 (1973). Peptides are dissolved at 5 mg/mL in PBS and are filter-sterilized. The suspension of B16F10 cells (5×10^5) in 0.1 mL of DMEM is mixed with 0.1 mL of the peptide (or .1 ml PBS in control), incubated for 5 minutes at room temperature, and then injected into the tail vein of syngeneic C57BL/6 female mice (Jackson Labs., Bar Harbor, Me.) at 6 weeks of age. Each treatment and control group consists of eight mice. Three weeks after the injections, the mice are killed and the number of pulmonary tumors on the surface of the lungs counted."}}, "note": "Peptide text beside a SMILES is read from it.", "data": [{"smiles": "CC[C@H](C)[C@@H]1NC(=O)[C@H](Cc2ccc(O)cc2)NC(=O)[C@@H](CCCNC(=N)N)NC(=O)[C@H](CO)NC(=O)CNC1=O", "note": "[cyclic peptide of the invention] (HELM PEPTIDE1{G.S.[dR].Y.I}$PEPTIDE1,PEPTIDE1,1:R1-5:R2$$$V2.0)", "values": [{"measurement": "affinity for cell adhesion", "setting": "HT-1080 cells; HT-1080 cells, compared with the straight chain peptide, FIG. 1", "value": "higher affinity for cell adhesion than the straight chain peptide"}, {"measurement": "blocking of cell adhesion and laminin-mediated adhesion", "setting": "HT-1080 cells; summary statement", "value": "blocks cell adhesion, laminin-mediated adhesion"}, {"measurement": "elution of laminin receptor from laminin affinity columns", "setting": "67 kd laminin receptor", "value": "elutes the laminin receptor from laminin affinity columns"}, {"measurement": "binding of laminin receptor", "setting": "67 kd laminin receptor; 67 kd laminin receptor", "value": "binds the 67 kd laminin receptor"}, {"measurement": "in vivo antimetastatic effectiveness (number of pulmonary tumors on the surface of the lungs)", "setting": "B16F10 melanoma cells; B16F10 cells mixed with peptide, injected into tail vein of C57BL/6 female mice, counted three weeks after injection, compared with linear YIGSR-NH2, FIG. 2", "value": "at least twice as effective as linear YIGSR-NH2"}, {"measurement": "melanoma cell colonization", "setting": "B16F10 melanoma cells; summary statement", "value": "blocks"}]}]}
